Data on one compound can be found in US11459387B2, “Anti-CD147 antibody” (DAIICHI SANKYO COMPANY, LIMITED, priority 2017, dated 2022).

In test [1] the test system is human pancreatic line MIA PaCa-2. Kind of test: MIA PaCa-2 pancreatic xenograft model in NOD-scid mice, humanized antibodies. Type of test: in vivo. The settings on record: gemcitabine 400 mg/kg ip 7 and 14 days after the inoculation. The protocol:
5×10^6 cells of human pancreatic line MIA PaCa-2 were suspended in PBS containing 50% GFR-Matrigel (Corning Inc., Cat. 354230), and the suspension was inoculated subcutaneously into the axilla of 4 week-old female NOD-scid mice (NOD. CB17-Prkdc/J, purchased from CHARLES RIVER LABORATORIES JAPAN, INC). […] As a control drug, gemcitabine (purchased from Eli Lilly Japan K.K.) that is a standard therapeutic agent for pancreatic cancer was administered intraperitoneally to cancer-bearing mice at 400 mg/kg 7 and 14 days after the inoculation (n=5). The major axis and the minor axis of the inoculated tumor were measured twice a week using an electronic digital caliper (available from MITUTOYO CORPORATION) to calculate the tumor volume by the following formula.
In general terms: A xenograft is tissue or cells of one species grown in another, often human tumour cells in immunodeficient mice.

Test [2] concerns human pancreatic line BxPC-3. Description: SMAD4-negative BxPC-3 pancreatic cancer-bearing model in BALB/c-nu mice. The note with it: gemcitabine 200 mg/kg via the tail vein 8, 15, 22 days after the inoculation. Type of test: in vivo. The text has this:
The transcription factor, SMAD4, is known as one of the molecules important for activation of SMAD signaling (Zang, et al., Current Biology, 270-276, 1997). It is known that SMAD signaling is partially impaired due to genetic defects of SMAD4 in some pancreatic cancers (Hahn, et al., Science, 350-353, 1996). […] 2.5×10^6 cells of human pancreatic line BxPC-3 (ATCC, Cat. CRL-1687) were suspended in PBS containing […] (Corning Inc., Cat. 354234), and the suspension was inoculated subcutaneously into the axilla of 6 week-old female BALB/c-nu mouse (CAnN. Cg-Foxn1nu/CrlCrlj, purchased from CHARLES RIVER LABORATORIES JAPAN, INC). […] As a control drug, gemcitabine (Eli Lilly Japan K.K., Gemzar®) that is a therapeutic agent for pancreatic cancer was administered to mice bearing tumor via the tail vein at 200 mg/kg 8, 15, 22 days after the inoculation (n=5). The major axis and the minor axis of the inoculated tumor were measured twice a week using an electronic digital caliper (available from MITUTOYO CORPORATION) to calculate the tumor volume by the following formula. Tumor volume (mm^3)=½×minor axis (mm)×minor axis (mm)×major axis (mm)

Test [3] has as its system gemcitabine-resistant MIA PaCa-2 tumors. Kind of test: Gemcitabine-resistant MIA PaCa-2 pancreatic cancer tumor model in NOD-scid mice. Type of test: in vivo, human. The source says: The antitumor efficacy of the CD147 antibody in a gemcitabine-resistant pancreatic cancer tumor model was investigated. 5×10^6 cells of human pancreatic line MIA PaCa-2 were suspended in PBS containing 50% GFR-Matrigel (Corning Inc., Cat. 354230), and the suspension was inoculated subcutaneously into the axilla of 5 week-old female NOD-scid mice (NOD. CB17-Prkdc/J, CHARLES RIVER LABORATORIES JAPAN, INC). Gemcitabine (Eli Lilly Japan K.K.), which is a standard therapeutic agent for pancreatic cancer, was intraperitoneally administered at 400 mg/kg 6 days after the inoculation, and grouping of mice in which gemcitabine-resistant tumors were confirmed to grow was performed based on tumor size one week later. Gemcitabine was intraperitoneally administered to the control group at 400 mg/kg (n=5) 13 days (grouping date) and 20 days after the inoculation. […] The major axis and the minor axis of the inoculated tumor were measured twice a week using an electronic digital caliper (available from MITUTOYO CORPORATION) to calculate the tumor volume by the following formula. […]

The subject of test [4] is human pancreatic line MIA PaCa-2. Kind of test: MIA PaCa-2 model in Nude mice, humanized antibodies with different binding activities. Type of test: in vivo. The note with it: gemcitabine 400 mg/kg via the tail vein 3 and 10 days after the inoculation. The protocol: 5×10^6 cells of human pancreatic line MIA PaCa-2 were suspended in PBS containing 50% GFR-Matrigel (Corning Inc., Cat. 354230), and the suspension was inoculated subcutaneously into the axilla of 4-week old female Nude mice (BALB/c Slc-nu/nu, purchased from Japan SLC, Inc). […] As a control drug, gemcitabine (purchased from Eli Lilly Japan K.K.), which is a standard therapeutic agent for pancreatic cancer, was administered to cancer-bearing mice via the tail vein at 400 mg/kg 3 and 10 days after the inoculation (n=6). The major axis and the minor axis of the inoculated tumor were measured twice a week using an electronic digital caliper (available from MITUTOYO CORPORATION) to calculate the tumor volume by the following formula. Tumor volume (mm^3)=½×minor axis (mm)×minor axis (mm)×major axis (mm)

Structures are written as SMILES.

`Nc1ccn([C@@H]2O[C@H](CO)[C@@H](O)C2(F)F)c(=O)n1` [gemcitabine, reference compound]: the “tumor disappearance (in words)” value in test [1] is “no tumor disappearance was recognized”. Besides, the “tumor growth inhibition rate” value in test [1] (NOD-scid mice) was found to be 71%; in test [4], 66%. For the same compound, the “sensitivity of BxPC-3 tumor (in words)” value in test [2] is listed as “resistant”. Also, in test [3] (gemcitabine 400 mg/kg ip 6, 13 and 20 days after the inoculation, 28 days after the inoculation), the average tumor size amounted to 1269 mm^3. In addition, the “regressing tumors (in words)” value in test [3] (gemcitabine 400 mg/kg ip alone) is recorded as “no regressing tumors were observed”.
